Earlier results in US4215038A, “Peptides which inhibit gonadal function” (The Salk Institute for Biological Studies, priority 1978, dated 1980).
Non-standard residues stand in square brackets, D forms with d. pGlu = O=C1CC[C@@H](C(=O)O)N1

System: release of gonadotropins
Conditions: compared with the 6-Gly peptide

Substance: [pGlu]WSY[dA]LRPG-NH2
- potency as an inhibitor for the release of gonadotropins relative to the same peptide with Gly in the 6-position: 3 times
